Measurements published in US20240101599A1, “PEPTIDE, CELL GROWTH PROMOTER, PROTEIN PRODUCTION PROMOTER, CULTURE MEDIUM, CELL GROWTH METHOD USING PEPTIDE, AND PROTEIN PRODUCTION METHOD USING PEPTIDE” (Maruhachi Muramatsu, Inc., priority 2020, published 2024).
Peptide text beside a SMILES is read from it.

Assays:
CHO-K1 [1] = experiment: Relationship between number of days of cell growth of each peptide and cell number (absorbance); assay type: cell-based; conditions: 1.1 mM GPP, 2.2 mM DGP, 2.1 mM GEK, 2.0 mM AGK, MEMα without FBS
Protocol: Peptides having the sequences of Gly-Pro-Pro (GPP), Asp-Gly-Pro (DGP), Gly-Glu-Lys (GEK), and Ala-Gly-Lys (AGK) were synthesized to prepare each peptide solution such that the concentration was a concentration at which the cell number increased the most within a range of 0 mM to 5 mM. In other words, Gly-Pro-Pro (GPP) was adjusted to 11 mM, Asp-Gly-Pro (DGP) was adjusted to 22 mM, Gly-Glu-Lys (GEK) was adjusted to 21 mM, and Ala-Gly-Lys (AGK) was adjusted to 20 mM, and an amount of 1/10 of the total culture medium volume was added to each well immediately before the cell culture test such that final concentrations were 1.1 mM, 2.2 mM, 2.1 mM, and 2.0 mM, respectively.
A cell suspension prepared such that CHO-K1 (RIKEN BioResource Research Center, cell number: RCB2330) was at 3×10^4 cells/mL was seeded in a 96-well plate at 100 μL/well and cultured in an incubator at 37° C. and 5% CO2 for 24 hours. As a culture medium, an MEMα culture medium (Gibco) containing 10% FBS was used.
After removing the culture medium from each well and washing with the MEMα culture medium (100 μL), 90 μL of a new MEMα culture medium was dispensed into each well, and each peptide solution (10 μL) was added (total 100 μL/well) to perform culture for 0 to 5 days. Every day, 10 μL/well of a viable cell count measurement reagent SF (Nacalai Tesque Inc.) was added, and a color reaction was carried out in an incubator at 37° C. and 5% CO2 for 2 hours to measure an absorbance at 450 nm with a plate reader. A reference wavelength was 630 nm. It was confirmed that the absorbance at 450 nm correlated with the cell number. A similar culture test was performed using a system containing neither peptide nor FBS as a comparative sample.
The above preparation, culture, and measurement were performed with n=3, and Table 12 and FIG. 12 show the absorbance and the standard deviation of each peptide solution for each day.

CHO-K1 [2] = experiment: Cell growth test of each peptide on coating agent for 5 days; assay type: cell-based; set-up: Viability, 1 / Viability, 2 / Viability, 3 / Viability, Mean: unit not given here; conditions: 2.0 mM Ala-Gly-Lys, 2.1 mM Gly-Glu-Lys, 2.5 mM Gly-Gly-Gly, poly-L-lysine coating; for Cells cell count, Mean / Viability, Mean: mean n=3, 2.2 mM Asp-Gly-Pro; for Cells cell count, 1 / Viability, 1: replicate 1, 2.2 mM Asp-Gly-Pro; for Cells cell count, 2 / Viability, 2: replicate 2, 2.2 mM Asp-Gly-Pro; for Cells cell count, 3 / Viability, 3: replicate 3, 2.2 mM Asp-Gly-Pro
Protocol: Peptides having the sequences of Asp-Gly-Pro (DGP), Ala-Gly-Lys (AGK), Gly-Glu-Lys (GEK), and Gly-Gly-Gly (GGG) were synthesized to prepare each peptide solution such that the concentration was a concentration at which the cell number increased the most within a range of 0 mM to 5 mM. In other words, Asp-Gly-Pro (DGP) was adjusted to 22 mM, Ala-Gly-Lys (AGK) was adjusted to 20 mM, Gly-Glu-Lys (GEK) was adjusted to 21 mM, and Gly-Gly-Gly (GGG) was adjusted to 25 mM, and an amount of 1/10 of the total culture medium volume was added to each well immediately before the cell culture test such that final concentrations were 2.2 mM, 2.0 mM, 2.1 mM, and 2.5 mM, respectively. Poly-L-lysine (Peptide Institute, Inc., Poly-L-Lysine Hydrochloride, code: 3075) was prepared to 0.1 mg/mL, and 200 μL was dispensed into each well of a 24-well plate, which was left to stand in an incubator at 37° C. for 2 hours. After removing the residual liquid with an aspirator, rinsing was performed with distilled water, irradiation was performed with a UV lamp in a clean bench without a lid, and drying was performed overnight to sterilize. A cell suspension prepared such that CHO-K1 (RIKEN BioResource Research Center, cell number: RCB2330) was at 4×10^4 cells/mL was seeded in each well of a 24-well plate at 500 μL/well and cultured in an incubator at 37° C. and 5% CO2 for 24 hours. As a culture medium, an MEMα culture medium (Gibco) containing 10% FBS was used.
After removing the culture medium from each well and washing with the MEMα culture medium (500 μL), 450 μL of a new MEMα culture medium was dispensed into each well, and each peptide solution (50 μL) was added (total 500 μL/well) to perform culture for 5 days. The cells were recovered to count the cell number. A similar culture test was performed using a system containing neither peptide nor FBS as a comparative sample.
The culture medium in each well was recovered in a 1.5 mL tube to be rinsed with 200 μL of MEMα, and the rinsed liquid was also recovered in the same 1.5 mL tube. Thereafter, 100 μL of trypsin was added and incubated for 3 minutes. After rinsing with 300 μL of MEMα containing 10% FBS, the rinsed liquid was also recovered in the same 1.5 mL tube. After rinsing again with 200 μL of MEMα containing 10% FBS, the rinsed liquid was also recovered in the same 1.5 mL tube.
A centrifugation operation was performed on the cells recovered in the 1.5 mL tube. The centrifugation conditions were 1,000 rpm, 10 minutes, and 4° C.
The supernatant was removed, and 300 μL of Cold PBS (phosphate buffered saline) was added to perform a centrifugation operation under the same conditions. The present operation was repeated twice.
Suspension was carried out with 100 μL of Binding Buffer, and 2 μL of propidium iodide (PI) was added and stirred in the tube to cause a reaction for 15 minutes at room temperature and with light shielding. Thereafter, the viable cell count and the cell viability were measured with a flow cytometer.
The above preparation, culture, and measurement were performed with n=3. Table 15 and FIG. 15 show the viable cell count in each peptide solution, and Table 16 and FIG. 16 show the cell viability in each peptide solution.

Compound | OD450 (average value n = 3) (CHO-K1 [1]; Day 0) | OD450 (average value n = 3) (CHO-K1 [1]; Day 1) | OD450 (average value n = 3) (CHO-K1 [1]; Day 2) | OD450 (average value n = 3) (CHO-K1 [1]; Day 3) | OD450 (average value n = 3) (CHO-K1 [1]; Day 4) | OD450 (average value n = 3) (CHO-K1 [1]; Day 5) | Cells cell count, Mean (CHO-K1 [2]) | Viability, Mean (CHO-K1 [2]) | Cells cell count, 1 (CHO-K1 [2]) | Viability, 1 (CHO-K1 [2]) | Cells cell count, 2 (CHO-K1 [2]) | Viability, 2 (CHO-K1 [2]) | Cells cell count, 3 (CHO-K1 [2]) | Viability, 3 (CHO-K1 [2])
Asp-Gly-Pro [DGP] | 0.1607 | 0.4507 | 0.6840 | 0.7700 | 0.9313 | 0.9363 | 14.9353 ×10^4 | 89.6 | 15.8220 ×10^4 | 91.5 | 14.8590 ×10^4 | 91.2 | 14.1250 ×10^4 | 86.0
NCCCC[C@H](NC(=O)[C@H](CCC(=O)O)NC(=O)CN)C(=O)O [GEK, Gly-Glu-Lys] (H-Gly-Glu-Lys-OH; N-terminus and C-terminus assumed) | 0.1613 | 0.4280 | 0.6043 | 0.7300 | 0.9023 | 0.9107 | 16.5830 ×10^4 | 90.3 | 15.7190 ×10^4 | 90.2 | 16.9875 ×10^4 | 90.3 | 17.0425 ×10^4 | 90.5
C[C@H](N)C(=O)NCC(=O)N[C@@H](CCCCN)C(=O)O [AGK, Ala-Gly-Lys] (H-Ala-Gly-Lys-OH; N-terminus and C-terminus assumed) | 0.1757 | 0.4577 | 0.7440 | 0.7997 | 1.0263 | 1.0620 | 2.6217 ×10^4 | 25.0 | 2.6860 ×10^4 | 26.4 | 3.0605 ×10^4 | 26.4 | 2.1185 ×10^4 | 22.1
Gly-Pro-Pro [GPP] | 0.2023 | 0.5267 | 0.7083 | 0.8350 | 1.0227 | 0.9003 |  |  |  |  |  |  |  | 
